Laboratory results: patent US20070225170A1, “2-Halo-6-Alkylphenyl-Substituted Tetramic Acid Derivatives” (BAYER CROPSCIENCE AKTIENGESELLSCHAFT, priority 2003, published 2007)

Legend:
Summer barley = experiment: Container trials with cereals in the greenhouse, without/with safener; conditions: in vivo
[1] = tested on: greenhouse red spider mite (Tetranychus urticae); experiment: Tetranychus test (OP-resistant/spray treatment); assay type: in vivo
Method: Tetranychus Test (OP-Resistant/Spray Treatment)
To produce a suitable preparation of active compound, 1 part by weight of active compound is mixed with the stated amounts of solvents and emulsifier, and the concentrate is diluted with emulsifier-containing water to the desired concentration.
Discs of bean leaves (Phaseolus vulgaris), which are infested by all stages of the greenhouse red spider mite (Tetranychus urticae), are sprayed with a preparation of active compound of the desired concentration.
After the desired period of time, the activity in % is determined. 100% means that all spider mites have been killed; 0% means that none of the spider mites have been killed.

Setaria = experiment: Herbicidal post-emergence action, greenhouse; assay type: in vivo; conditions: 320 g of a.i./ha
Method: (§1) Herbicidal Post-Emergence Action
(§2) Seeds of monocotyledonous and dicotyledonous weed and crop plants are placed into sandy loam in wood fibre pots, covered with soil and cultivated in a greenhouse under good growth conditions. 2-3 weeks after sowing, the test plants are treated at the one-leaf stage. The test compounds, formulated as wettable powders (WP), are, in various dosages with a water application rate of 600 l/ha (converted), with 0.2% of wetting agent added, sprayed onto the green parts of the plants. After the test plants were kept in the greenhouse under optimum growth conditions for about 3 weeks, the effect of the preparations is rated visually in comparison to untreated controls (herbicidal effect in percent (%): 100% effect=the plants have died, 0% effect=like control plants).

Lolium = experiment: Herbicidal post-emergence action, greenhouse; assay type: in vivo; conditions: 320 g of a.i./ha
Method: as §1, §2

Avena sativa = experiment: Herbicidal post-emergence action, greenhouse; assay type: in vivo; conditions: 320 g of a.i./ha, greenhouse (T22-T24)
Method: as §1, §2

[2] = tested on: larvae of the mustard beetle (Phaedon cochleariae); experiment: Phaedon test (spray treatment); assay type: in vivo; conditions: 100 g/ha
Method: Phaedon Test (Spray Treatment) To produce a suitable preparation of active compound, 1 part by weight of active compound is mixed with the stated amounts of solvents and emulsifier, and the concentrate is diluted with emulsifier-containing water to the desired concentration. Discs of Chinese cabbage (Brassica pekinensis) are sprayed with a preparation of active compound of the desired concentration and, after they have dried, populated with larvae of the mustard beetle (Phaedon cochleariae).

Sinapis = experiment: Herbicidal post-emergence action, greenhouse; assay type: in vivo; conditions: 320 g of a.i./ha, greenhouse (T22)
Method: as §1, §2

Meloidogyne incognita = experiment: Meloidogyne test; assay type: in vivo; conditions: 20 ppm; nematicidal action by formation of galls on lettuce roots
Method: To produce a suitable preparation of active compound, 1 part by weight of active compound is mixed with the stated amounts of solvent and emulsifier, and the concentrate is diluted with water to the desired concentration.
Vessels are filled with sand, solution of active compound, Meloidogyne incognita egg/larvae suspension and lettuce seeds. The lettuce seeds germinate and the plants develop. On the roots, galls develop.
After the desired period of time, the nematicidal action is determined in % by the formation of galls. 100%, means that no galls have been found; 0% means that the number of galls on the treated plants corresponds to that of the untreated control.

Stellaria = experiment: Herbicidal post-emergence action, greenhouse; assay type: in vivo; conditions: 320 g of a.i./ha
Method: as §1, §2

Amaranthus = experiment: Herbicidal post-emergence action, greenhouse; assay type: in vivo; conditions: 320 g of a.i./ha, second series (T27, T28)
Method: as §1, §2

Summer wheat = experiment: Container trials with cereals in the greenhouse, without/with safener; conditions: in vivo
[3] = greenhouse, second series (T26, T28)
[4] = greenhouse, second series (T25-T28)

Structure (SMILES) | Summer barley observed (%) (Summer barley) | Kill rate in % after 5d ([1]; 500 g/ha) | herbicidal effect, Setaria (Setaria; greenhouse (T22-T24)) | herbicidal effect, Lolium (Lolium; greenhouse (T22-T24)) | herbicidal effect, Avena sativa (Avena sativa) | Kill rate in % after 7d [2] | Kill rate in % after 5d ([1]; 100 g/ha) | herbicidal effect, Sinapis (Sinapis) | Effect in % after 14d (Meloidogyne incognita) | herbicidal effect, Stellaria (Stellaria; greenhouse (T23)) | herbicidal effect, Stellaria (Stellaria; [3]) | herbicidal effect, Setaria (Setaria; [4]) | herbicidal effect, Lolium (Lolium; [4]) | herbicidal effect, Amaranthus (Amaranthus) | Summer wheat observed (%) (Summer wheat)
CCOC(=O)OC1=C(c2c(Br)cc(C)cc2CC)C(=O)N(CC)C1C (centres unmarked) [I-c-7] | 10% | 90% | 100% | 90% | 80% |  |  |  |  |  |  |  |  |  | 
CCc1cc(C)cc(Br)c1C1=C(O)C(CC)N(C)C1=O (centres unmarked) [I-a-6] |  |  | 100% | 100% | 80% | 100% | 80% | 70% |  |  |  |  |  |  | 
CCc1cc(C)cc(Br)c1C1=C(O)C(C)N(CC)C1=O (centres unmarked) [I-a-5] |  |  | 100% | 90% | 80% |  | 90% |  |  |  |  |  |  |  | 
CCc1cc(C)cc(Br)c1C1=C(O)C2CCCN2C1=O (centres unmarked) [I-a-1] |  |  | 90% | 100% | 90% |  |  |  | 80% | 70% | 70% | 90% | 90% | 100% | 
CCOC(=O)OC1=C(c2c(Br)cc(C)cc2CC)C(=O)N(C)C1CC (centres unmarked) [I-c-6] |  |  | 100% | 90% | 80% |  | 70% |  |  |  | 70% | 80% | 80% |  | 15%
CCc1cc(C)cc(Br)c1C1=C(O)CN(C2CC2)C1=O [I-a-7] |  |  | 100% | 100% | 90% | 100% |  | 70% |  |  | 80% | 80% | 100% |  | 
CCc1cc(C)cc(Br)c1C1=C(OC(=O)C(C)C)C(C)(C)NC1=O [I-b-2] |  |  | 100% | 100% | 90% |  |  | 70% |  |  |  |  |  |  | 
CCc1cc(C)cc(Br)c1C1=C(OC(=O)C(C)(C)C)C2CCCN2C1=O (centres unmarked) [I-b-1] |  |  | 90% | 90% | 90% |  |  |  |  |  |  | 100% | 100% | 70% | 
